Measurements as given in the supplement of paper PMC10307832.

Experiments:
Experiment in all cases: relative viability (nuclei count vs DMSO), 5 days (fraction); higher = more cells survive
Omipalisib + Bortezomib = compound: COc1ncc(-c2ccc3nccc(-c4ccnnc4)c3c2)cc1NS(=O)(=O)c1ccc(F)cc1F [Omipalisib] + CC(C)C[C@H](NC(=O)[C@H](Cc1ccccc1)NC(=O)c1cnccn1)B(O)O [Bortezomib] (partner 0.002 µM)
Summary of the method: (§1)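 The day after seeding in 1536-well plates, lung cancer cell lines were treated by pin tool with a single drug, or with a fixed anchor-drug dose together with five library-drug doses (not always all listed) in √10 steps. After 5 days, a combined fix-and-stain solution (final 0.05% Triton X-100, 1% formaldehyde, 1 ug/ml Hoechst) was added. Nuclei counted on 4× images gave relative viability as treated counts over vehicle counts, reported as the median of duplicate plates.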

Omipalisib + Foretinib = compound: COc1ncc(-c2ccc3nccc(-c4ccnnc4)c3c2)cc1NS(=O)(=O)c1ccc(F)cc1F [Omipalisib] + COc1cc2c(Oc3ccc(NC(=O)C4(C(=O)Nc5ccc(F)cc5)CC4)cc3F)ccnc2cc1OCCCN1CCOCC1 [Foretinib] (partner 0.25 µM)
Summary of the method: as §1

Omipalisib + OSI-027 = compound: COc1ncc(-c2ccc3nccc(-c4ccnnc4)c3c2)cc1NS(=O)(=O)c1ccc(F)cc1F [Omipalisib] + COc1cccc2cc(-c3nc([C@H]4CC[C@H](C(=O)O)CC4)n4ncnc(N)c34)[nH]c12 [OSI-027] (partner 0.5 µM)
Summary of the method: as §1

Omipalisib + Lapatinib = compound: COc1ncc(-c2ccc3nccc(-c4ccnnc4)c3c2)cc1NS(=O)(=O)c1ccc(F)cc1F [Omipalisib] + CS(=O)(=O)CCNCc1ccc(-c2ccc3ncnc(Nc4ccc(OCc5cccc(F)c5)c(Cl)c4)c3c2)o1 [Lapatinib] (partner 2 µM)
Summary of the method: as §1

Omipalisib + Pictilisib = compound: COc1ncc(-c2ccc3nccc(-c4ccnnc4)c3c2)cc1NS(=O)(=O)c1ccc(F)cc1F [Omipalisib] + CS(=O)(=O)N1CCN(Cc2cc3nc(-c4cccc5[nH]ncc45)nc(N4CCOCC4)c3s2)CC1 [Pictilisib] (partner 1 µM)
Summary of the method: as §1

Omipalisib + Dasatinib = compound: COc1ncc(-c2ccc3nccc(-c4ccnnc4)c3c2)cc1NS(=O)(=O)c1ccc(F)cc1F [Omipalisib] + Cc1nc(Nc2ncc(C(=O)Nc3c(C)cccc3Cl)s2)cc(N2CCN(CCO)CC2)n1 [Dasatinib] (partner 0.075 µM)
Summary of the method: as §1

| Cell Line | relative viability (Omipalisib + Bortezomib; first compound 0.0003 µM) | relative viability (Omipalisib + Bortezomib; first compound 0.003 µM) | relative viability (Omipalisib + Bortezomib; first compound 0.03 µM) | relative viability (Omipalisib + Foretinib; first compound 0.0003 µM) | relative viability (Omipalisib + Foretinib; first compound 0.003 µM) | relative viability (Omipalisib + Foretinib; first compound 0.03 µM) | relative viability (Omipalisib + OSI-027; first compound 0.0003 µM) | relative viability (Omipalisib + OSI-027; first compound 0.003 µM) | relative viability (Omipalisib + OSI-027; first compound 0.03 µM) | relative viability (Omipalisib + Lapatinib; first compound 0.0003 µM) | relative viability (Omipalisib + Lapatinib; first compound 0.003 µM) | relative viability (Omipalisib + Lapatinib; first compound 0.03 µM) | relative viability (Omipalisib + Pictilisib; first compound 0.0003 µM) | relative viability (Omipalisib + Pictilisib; first compound 0.003 µM) | relative viability (Omipalisib + Pictilisib; first compound 0.03 µM) | relative viability (Omipalisib + Dasatinib; first compound 0.0003 µM) | relative viability (Omipalisib + Dasatinib; first compound 0.003 µM) | relative viability (Omipalisib + Dasatinib; first compound 0.03 µM) |
| --- | --- | --- | --- | --- | --- | --- | --- | --- | --- | --- | --- | --- | --- | --- | --- | --- | --- | --- |
| NCI-H1650 | 0.197 | 0.184 | 0.2 | 1.19 | 0.968 | 0.656 | 0.717 | 0.413 | 0.259 | 0.771 | 0.771 | 0.576 | 0.401 | 0.556 | 0.564 | 0.326 | 0.237 | 0.189 |
| NCI-H1651 | 0.872 | 0.86 | 0.747 | 0.664 | 0.497 | 0.489 | 0.55 | 0.632 | 0.482 | 0.538 | 0.65 | 0.44 | 0.545 | 0.512 | 0.458 | 0.342 | 0.297 | 0.272 |
| NCI-H2126 | 1.06 | 0.895 | 0.734 | 1.01 | 0.718 | 0.342 | 0.71 | 0.488 | 0.411 | 0.759 | 0.46 | 0.374 | 0.518 | 0.463 | 0.435 | 0.545 | 0.366 | 0.301 |
| LCLC-103H | 0.943 | 0.891 | 0.732 | 0.676 | 0.418 | 0.236 | 0.436 | 0.354 | 0.313 | – | – | – | 0.615 | 0.665 | 0.531 | 0.467 | 0.326 | 0.167 |
| NCI-H23 | 0.877 | 0.684 | 0.306 | 0.851 | 0.681 | 0.461 | 0.62 | 0.365 | 0.321 | 0.911 | 0.862 | 0.501 | 0.45 | 0.373 | 0.401 | 0.826 | 0.468 | 0.332 |
| EPLC-272H | 1.08 | 0.732 | 0.611 | 0.574 | 0.388 | 0.196 | 0.286 | 0.29 | 0.217 | 0.908 | 0.535 | 0.562 | 0.403 | 0.377 | 0.298 | 0.387 | 0.239 | 0.113 |
| NCI-H1975 | 0.33 | 0.27 | 0.179 | 0.991 | 0.672 | 0.287 | 0.772 | 0.415 | 0.159 | 0.801 | 0.613 | 0.22 | 0.321 | 0.277 | 0.193 | 0.33 | 0.249 | 0.113 |
| NCI-H2170 | – | – | – | 0.945 | 0.565 | 0.565 | 0.656 | 0.475 | 0.485 | 0.221 | 0.257 | 0.257 | 0.3 | 0.137 | 0.278 | 0.517 | 0.426 | 0.453 |
| NCI-H358 | – | – | – | 0.626 | 0.591 | 0.371 | 0.595 | 0.473 | 0.16 | 0.388 | 0.367 | 0.325 | 0.285 | 0.272 | 0.278 | 0.127 | 0.11 | 0.131 |
| PC-3 [JPC-3] | 0.788 | 0.888 | 0.909 | 1.03 | 1.03 | 0.856 | 0.735 | 0.569 | 0.551 | 0.457 | 0.367 | 0.318 | 0.816 | 0.766 | 0.689 | 0.942 | 0.917 | 0.726 |
| A-427 | 0.969 | 0.903 | 0.913 | 0.865 | 1.01 | 0.718 | 0.48 | 0.281 | 0.377 | 1.08 | 0.897 | 1.05 | 0.729 | 0.697 | 0.744 | 0.686 | 0.434 | 0.625 |
| LU99A | 1.01 | 0.728 | 0.495 | 0.718 | 0.464 | 0.327 | 0.315 | 0.213 | 0.239 | 0.908 | 0.71 | 0.346 | 0.303 | 0.242 | 0.265 | 0.482 | 0.331 | 0.267 |
| H3255 | 0.803 | 0.588 | 0.571 | 0.731 | 0.669 | 0.494 | 0.546 | 0.45 | 0.299 | 0.219 | 0.193 | 0.203 | 0.432 | 0.439 | 0.293 | 0.336 | 0.325 | 0.257 |
| NCI-H1793 | – | – | – | 0.559 | 0.399 | 0.244 | 0.261 | 0.183 | 0.168 | 0.614 | 0.425 | 0.214 | 0.348 | 0.344 | 0.293 | 0.331 | 0.279 | 0.273 |
| NCI-H441 | 0.418 | 0.362 | 0.259 | 0.761 | 0.657 | 0.434 | 0.642 | 0.35 | 0.26 | – | – | – | 0.428 | 0.354 | 0.351 | 0.494 | 0.37 | 0.339 |
| NCI-H1395 | – | – | – | 0.916 | 0.886 | 0.586 | 0.608 | 0.458 | 0.527 | 0.983 | 0.783 | 0.608 | 0.92 | 0.516 | 0.585 | 0.417 | 0.362 | 0.348 |
| NCI-H2342 | – | – | – | 0.816 | 0.688 | 0.453 | 0.569 | 0.516 | 0.467 | – | – | – | – | – | – | 0.298 | 0.294 | 0.243 |
| ChaGo-K-1 | 1.06 | 0.993 | 1.04 | 0.852 | 0.75 | 0.715 | 0.557 | 0.374 | 0.421 | – | – | – | 0.635 | 0.652 | 0.809 | 0.657 | 0.583 | 0.473 |
| SW 900 | – | – | – | 0.888 | 0.691 | 0.622 | 0.573 | 0.495 | 0.306 | – | – | – | – | – | – | 0.568 | 0.293 | 0.211 |
